These are literature values, as cited in patent publication US6967090B2, “Nucleic acid and protein sequences of bovine epidermal growth factor” (Her Majesty the Queen in right of Canada, as represented by …, priority 2001, dated 2005).

In one data set the test system is gastric acid secretion. The following applies: Hollenberg and Gregory 1980.
The target of the next data set is EGF receptor (Homo sapiens, UniProt P00533). The following applies: Tadaki and Niyogi, 1993.
A further data set relates to gut cells. The following applies: piglet; WO 88/04180.
Another data set deals with rotavirus. The following applies: piglets infected with rotavirus; Zijlstra et al., 1994.
The test system of data set [1] is jejunal brush-border membranes. The following applies: rodent.
For the next data set, the system named is enteric infections. The following applies: oral administration; Buret et al., 1997.
The conditions of data set [2]: daily, 100 μg/kg body weight for nine days; U.S. Pat. No. 5,753,622.

With “human EGF, lacking the last five amino acids on the COOH end: truncated human EGF lacking the last five amino acids on the COOH end (NSDSECPLSHDGYCLHDGVCMYIEALDKYACNCVVGYIGERCQYRDLK; not fully specified; Epidermal growth factor; UniProt P01133 971-1018, looked up, fragment)”, in the data set on gastric acid secretion, the “capacity to inhibit gastric acid secretion” value is “retains its capacity to inhibit gastric acid secretion”.

“human EGF: human EGF variant with tyrosine replaced by phenylalanine at position 13 (NSDSECPLSHDGFCLHDGVCMYIEALDKYACNCVVGYIGERCQYRDLKWWELR; not fully specified; Epidermal growth factor; UniProt P01133 971-1023, looked up, variant Y13F)”: in the data set with EGF receptor, the “effect of substitution on binding to receptor” value is “little effect on the binding”.

“EGF: 6 kDa polypeptide composed of 53 amino acids; species of origin not stated in the cited studies”: in the data set on gut cells, the “lactase and alkaline phosphatase activities” value was “without any marked effect”; the “sucrase and maltase activity” value is “enhancing both sucrase and maltase activity”. Moreover, in the data set with rotavirus, the intestinal functions entry is on record as “improves intestinal functions”. The “electrolytes, glucose and proline transport” value in data set [1] was “increases electrolytes, glucose and proline transport”. In addition, in the data set with enteric infections, the “rate of enteric infections” value is given as “reduces the rate of enteric infections” and the “reduction in weight gain caused by infection” value is “prevents the reduction in weight gain caused by infection”. Besides, in data set [2], the weight gain result is “enhances weight gain”.
